# Laboratory results published in US10125100B2, “Kinase inhibitors” (Respivert Limited, priority 2014, dated 2018).
# What was measured:
# Jurkat cells = assay: (r) Cell cytotoxicity assay; assay type: cell-based, human; details: 24 hours
# Method in brief: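 Viability read by flow cytometry as the fraction of propidium iodide-negative cells (7.5 μg/mL PI, 15 min), relative to 1.0% DMSO control. Beforehand, 1×10^5 Jurkat cells in RPMI/10% FBS were treated 24 h at 37° C., 5% CO2 with test compound at final 20, 5 or 1 μg/mL.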
# p38 MAPKα (MAPK14) = p38 MAPKα (MAPK14) (Homo sapiens (Human), UniProt Q16539); assay: p38 MAPKα enzyme inhibition (Method 2), Z-LYTE FRET; assay type: biochemical
# Protocol: (§1) The enzyme inhibitory activities of compounds disclosed herein are determined by FRET using synthetic peptides labelled with both donor and acceptor fluorophores (Z-LYTE, Invitrogen Ltd., Paisley, UK).
# The following two assay variants can be used for determination of p38 MAPKα inhibition.
# The inhibitory activities of test compounds against the p38 MAPKα isoform (MAPK14: Invitrogen) are evaluated indirectly by determining the level of activation/phosphorylation of the down-stream molecule, MAPKAP-K2. The p38 MAPKα protein (80 ng/mL, 2.5 μL) is mixed with the test compound (2.5 μL of either 4 μg/mL, 0.4 μg/mL, 0.04 μg/mL or 0.004 μg/mL) for 2 hr at RT. […] The mixture is incubated for 1 hr at RT. Development reagent (protease, 5 μL) is added for 1 hr prior to detection in a fluorescence microplate reader (Varioskan® Flash, ThermoFisher Scientific).
# This method follows the same steps as Method 1 above, but utilises a higher concentration of the p38 MAPKα protein (2.5 μL of 200 ng/mL protein instead of 2.5 μL of 80 ng/mL protein) for mixing with the test compound (tested at either 1 μg/mL, 0.1 μg/mL, 0.01 μg/mL or 0.001 μg/mL).
# (§2) In all cases, the site-specific protease cleaves non-phosphorylated peptide only and eliminates the FRET signal. Phosphorylation levels of each reaction are calculated using the ratio of coumarin emission (donor) over fluorescein emission (acceptor), for which high ratios indicate high phosphorylation and low ratios indicate low phosphorylation levels.
# c-Src = c-Src (Homo sapiens (Human), UniProt P12931); assay: c-Src enzyme inhibition, Z-LYTE FRET; assay type: biochemical
# Protocol: as §1
# (§3) The inhibitory activities of compounds of the invention against c-Src and Syk enzymes (Invitrogen), are evaluated in a similar fashion to that described hereinabove. The relevant enzyme (3000 ng/mL or 2000 ng/mL respectively, 2.5 μL) is incubated with the test compound (either 1 μg/mL, 0.1 μg/mL, 0.01 μg/mL, or 0.001 μg/mL, 2.5 μL each) for 2 hr at RT. The FRET peptides (8 μM, 2.5 μL), and appropriate ATP solutions (2.5 μL, 800 μM for c-Src, and 60 μM ATP for Syk) are then added to the enzymes/compound mixtures and the mixture incubated for 1 hr. Development reagent (protease, 5 μL) is added for 1 hr prior to detection in a fluorescence microplate reader (Varioskan® Flash, ThermoFisher Scientific).
# as §2
# Syk = Syk (Homo sapiens (Human), UniProt P43405); assay: Syk enzyme inhibition, Z-LYTE FRET; assay type: biochemical
# Protocol: as §1
# as §3, with “The” for “The inhibitory activities of compounds of the invention against c-Src and Syk enzymes (Invitrogen), are evaluated in a similar fashion to that described hereinabove. The”
# as §2
# p38 MAPKα (MAPK14), sequence (Q16539 whole entry): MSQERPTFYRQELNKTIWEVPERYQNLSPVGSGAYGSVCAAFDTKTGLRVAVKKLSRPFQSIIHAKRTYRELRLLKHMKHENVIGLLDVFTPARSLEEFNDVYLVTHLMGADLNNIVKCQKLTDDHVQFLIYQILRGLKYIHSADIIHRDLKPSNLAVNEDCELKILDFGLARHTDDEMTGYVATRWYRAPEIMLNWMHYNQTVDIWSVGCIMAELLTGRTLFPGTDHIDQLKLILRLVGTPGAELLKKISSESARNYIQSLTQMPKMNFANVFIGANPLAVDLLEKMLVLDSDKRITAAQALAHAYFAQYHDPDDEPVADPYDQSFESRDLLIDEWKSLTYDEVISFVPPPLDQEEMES
# c-Src, sequence (P12931 whole entry, looked up): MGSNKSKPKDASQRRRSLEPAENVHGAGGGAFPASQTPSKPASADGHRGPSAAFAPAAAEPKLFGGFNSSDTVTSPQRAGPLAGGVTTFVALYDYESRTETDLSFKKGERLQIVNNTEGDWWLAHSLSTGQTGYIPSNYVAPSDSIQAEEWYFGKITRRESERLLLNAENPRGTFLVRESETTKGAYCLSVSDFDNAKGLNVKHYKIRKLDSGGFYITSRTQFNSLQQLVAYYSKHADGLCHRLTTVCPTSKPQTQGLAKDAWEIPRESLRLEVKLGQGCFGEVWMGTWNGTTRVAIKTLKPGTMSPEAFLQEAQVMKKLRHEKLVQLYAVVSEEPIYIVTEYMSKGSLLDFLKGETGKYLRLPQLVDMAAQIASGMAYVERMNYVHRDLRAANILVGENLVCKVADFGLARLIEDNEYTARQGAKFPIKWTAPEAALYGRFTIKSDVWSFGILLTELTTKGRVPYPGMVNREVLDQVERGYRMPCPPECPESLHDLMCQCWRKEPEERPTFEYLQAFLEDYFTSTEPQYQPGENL
SMILES,% Viability at 1 μg/mL (Jurkat cells),% Viability at 5 μg/mL (Jurkat cells),% Viability at 20 μg/mL (Jurkat cells),IC50 (p38 MAPKα (MAPK14)),IC50 (c-Src),IC50 (Syk)
"COc1cc(Nc2cc(Oc3ccc(NC(=O)Nc4cc(C(C)(C)C)cc(NS(C)(=O)=O)c4OC)c4ccccc34)ccn2)ccc1C(=O)NCCN1CCN(C2CC2)CC1 [Example 26, 4-((4-((4-(3-(5-(tert-Butyl)-2-methoxy-3-(methylsulfonamido)phenyl)ureido)naphthalen-1-yl)oxy)pyridin-2-yl)amino)-N-(2-(4-cyclopropylpiperazin-1-yl)ethyl)-2-methoxybenzamide]",94.8%,84.6%,76.6%,40 nM,–,–
"COc1cc(Nc2cc(Oc3ccc(NC(=O)Nc4cc(C(C)(C)C)cc(NS(C)(=O)=O)c4OC)c4ccccc34)ccn2)ccc1S(=O)(=O)CC(CO)(CO)CO [Example 45, N-(5-(tert-Butyl)-3-(3-(4-((2-((4-((3-hydroxy-2,2-bis(hydroxymethyl)propyl)sulfonyl)-3-methoxyphenyl)amino)pyridin-4-yl)oxy)naphthalen-1-yl)ureido)-2-methoxyphenyl)-methanesulfonamide]",97.7%,93.7%,9.8%,36 nM,40 nM,108 nM
"COc1cc(Nc2cc(Oc3ccc(NC(=O)Nc4cc(C(C)(C)C)cc(NS(C)(=O)=O)c4OC)c4ccccc34)ccn2)cc(OC)c1C(=O)NCCN(C)C [Example 39, 4-((4-((4-(3-(5-(tert-Butyl)-2-methoxy-3-(methylsulfonamido)phenyl)ureido)naphthalen-1-yl)oxy)pyridin-2-yl)amino)-N-(2-(dimethylamino)ethyl)-2,6-dimethoxybenzamide]",93.9%,87.7%,1.5%,6 nM,17 nM,257 nM
"COc1cc(Nc2cc(Oc3ccc(NC(=O)Nc4cc(C(C)(C)C)cc(NS(C)(=O)=O)c4OC)c4ccccc34)ccn2)ccc1C(=O)NC(CO)(CO)CO [17(cm), 4-((4-((4-(3-(5-(tert-Butyl)-2-methoxy-3-(methylsulfonamido)phenyl)ureido)naphthalen-1-yl)oxy)pyridin-2-yl)amino)-N-(1,3-dihydroxy-2-(hydroxymethyl)propan-2-yl)-2-methoxybenzamide]",95.9%,77.0%,14.5%,47 nM,29 nM,82 nM
"COc1cc(Nc2cc(Oc3ccc(NC(=O)Nc4cc(C(C)(C)C)cc(NS(C)(=O)=O)c4OC)c4ccccc34)ccn2)ccc1S(=O)(=O)CCOCCOCCO [Example 40, N-(5-(tert-Butyl)-3-(3-(4-((2-((4-((2-(2-(2-hydroxyethoxy)ethoxy)ethyl)sulfonyl)-3-methoxyphenyl)amino)pyridin-4-yl)oxy)naphthalen-1-yl)ureido)-2-methoxyphenyl)-methanesulfonamide]",89.6%,73.6%,67.1%,162 nM,195 nM,400 nM
"COc1cc(Nc2cc(Oc3ccc(NC(=O)Nc4cc(C(C)(C)C)cc(NS(C)(=O)=O)c4OC)c4ccccc34)ccn2)cc(OC)c1C(=O)NCCN1CCN(C)CC1 [Example 22, 4-((4-((4-(3-(5-(tert-Butyl)-2-methoxy-3-(methylsulfonamido)phenyl)ureido)naphthalen-1-yl)oxy)pyridin-2-yl)amino)-2,6-dimethoxy-N-(2-(4-methylpiperazin-1-yl)ethyl)benzamide]",102.8%,96.6%,42.9%,6 nM,17 nM,138 nM
"COc1cc(Nc2cc(Oc3ccc(NC(=O)Nc4cc(C(C)(C)C)cc(N(CCO)S(C)(=O)=O)c4OC)c4ccccc34)ccn2)ccc1C(=O)NCCN1CC[S+]([O-])CC1 [Example 48, 4-((4-((4-(3-(5-(tert-Butyl)-3-(N-(2-hydroxyethyl)methylsulfonamido)-2-methoxyphenyl)-ureido)naphthalen-1-yl)oxy)pyridin-2-yl)amino)-2-methoxy-N-(2-(1-oxidothiomorpholino)-ethyl)benzamide]",89.0%,63.8%,54.2%,29 nM,20 nM,55 nM
"COc1cc(Nc2cc(Oc3ccc(NC(=O)Nc4cc(C(C)(C)C)cc(NS(C)(=O)=O)c4OC)c4ccccc34)ccn2)ccc1C(=O)NC[C@H](O)[C@H](O)[C@H](O)CO [Example 42, 4-((4-((4-(3-(5-(tert-Butyl)-2-methoxy-3-(methylsulfonamido)phenyl)ureido)naphthalen-1-yl)oxy)pyridin-2-yl)amino)-2-methoxy-N-((2S,3S4R)-2,3,4,5-tetrahydroxypentyl)benzamide]",96.6%,91.7%,21.3%,3 nM,21 nM,88 nM
"COc1cc(Nc2cc(Oc3ccc(NC(=O)Nc4cc(C(C)(C)C)cc(NS(C)(=O)=O)c4OC)c4ccccc34)ccn2)ccc1S(=O)(=O)CCCN1CCOCC1 [Example 20, N-(5-(tert-Butyl)-2-methoxy-3-(3-(4-((2-((3-methoxy-4-((3-morpholinopropyl)sulfonyl)phenyl)-amino)pyridin-4-yl)oxy)naphthalen-1-yl)ureido)phenyl)methanesulfonamide]",104.0%,99.3%,91.8%,–,77 nM,144 nM
COc1c(NC(=O)Nc2ccc(Oc3ccnc(Nc4ccc(C(=O)NCCN5CCOCC5)c(N(C)C)c4)c3)c3ccccc23)cc(C(C)(C)C)cc1NS(C)(=O)=O [Example 21],101.2%,82.4%,77.1%,–,16 nM,15 nM
"COCCOCCOCCOc1ccc(Nc2cc(Oc3ccc(NC(=O)Nc4cc(C(C)(C)C)cc(NS(C)(=O)=O)c4OC)c4ccccc34)ccn2)cc1C#N [Example 8, N-(5-(tert-Butyl)-3-(3-(4-((2-((3-cyano-4-(2-(2-(2-methoxyethoxy)ethoxy)ethoxy)phenyl)amino)pyridin-4-yl)oxy)naphthalen-1-yl)ureido)-2-methoxyphenyl)methanesulfonamide]",–,–,–,214 nM,–,–
"COc1cc(Nc2cc(Oc3ccc(NC(=O)Nc4cc(C(C)(C)C)cc(NS(C)(=O)=O)c4OC)c4ccccc34)ccn2)ccc1C(=O)N(C)CCCN1CCOCC1 [17(af), 4-[[4-[[4-[[5-tert-butyl-3-(methanesulfonamido)-2-methoxy-phenyl]carbamoylamino]-1-naphthyl]oxy]-2-pyridyl]amino]-2-methoxy-N-methyl-N-(3-morpholinopropyl)benzamide]",96.7%,76.2%,54.1%,5 nM,–,–
"COc1cc(Nc2cc(Oc3ccc(NC(=O)Nc4cc(C(C)(C)C)cc(NC(=O)CO)c4OC)c4ccccc34)ccn2)ccc1C(=O)NCCN1CC[S+]([O-])CC1 [Example 41, 4-((4-((4-(3-(5-(tert-Butyl)-3-(2-hydroxyacetamido)-2-methoxyphenyl)ureido)naphthalen-1-yl)oxy)pyridin-2-yl)amino)-2-methoxy-N-(2-(1-oxidothiomorpholino)ethyl)benzamide]",90.5%,67.3%,55.3%,31 nM,13 nM,325 nM
